Tests used:
rat A1 AR = biological target: T1, rat A1 AR (Rattus norvegicus, UniProt P25099); assay: Radioligand binding assay at rat A1 AR (rat brain cortex) vs. [^3H]CCPA; conditions: rat (r); rat brain cortex; n = 3
T1 construct: A1 ARs of rat brain cortical membrane; from tissue; host or cells: rat brain cortex membranes
T1 sequence (P25099 1-326): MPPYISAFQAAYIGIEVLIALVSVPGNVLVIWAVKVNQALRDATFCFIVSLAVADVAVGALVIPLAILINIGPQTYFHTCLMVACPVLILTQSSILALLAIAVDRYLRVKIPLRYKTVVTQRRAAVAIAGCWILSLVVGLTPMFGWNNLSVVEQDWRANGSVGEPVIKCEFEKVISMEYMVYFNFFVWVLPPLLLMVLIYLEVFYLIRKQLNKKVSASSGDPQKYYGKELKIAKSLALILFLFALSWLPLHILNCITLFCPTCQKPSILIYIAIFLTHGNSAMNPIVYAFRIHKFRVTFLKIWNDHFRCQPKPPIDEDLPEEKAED
Experimental: (§1) Membrane preparations and radioligand binding assays at rat A1 (rat brain cortex) and rat A2A ARs (rat brain striatum) were performed as previously described (Ozola et al., [2003]; Alnouri et al., [2015]). For assays at human A1, A2A, A2B, and A3 ARs, CHO cell membranes expressing one of the human AR subtypes were used as previously reported (Klotz et al., [1998]; Alnouri et al., [2015]; De Filippo et al., [2016]).
(§2) The synthesized tetrahydropyrazino[2,1-f ]purinediones 13–20 were evaluated in radioligand binding assays for their affinity to A1 ARs of rat brain cortical membrane and to A2A ARs of rat brain striatal membrane preparations. Selected compounds were further investigated for their affinity to human A1 and A2A ARs recombinantly expressed in Chinese hamster ovary (CHO) cells. All compounds were additionally investigated for their affinity to human A2B and A3 ARs recombinantly expressed in CHO cells to determine their AR subtype selectivity. […] It is well known that all xanthine derivatives lacking a ribose moiety, including tricyclic compounds, can only block ARs, but never act as AR agonists; therefore, additional functional studies were not required. […] Potent MAO-B inhibitors were additionally investigated for inhibition of human MAO-A to assess their selectivity. Results are presented in Tables 1–6, and data of standard ligands are included for comparison.

human A2A AR = biological target: T2, human A2A AR (Homo sapiens, UniProt P29274); assay: Radioligand binding assay at human A2A AR vs. [^3H]MSX-2; conditions: CHO cell membranes, n = 3, read-out: Ki ± SEM, A2A vs. [^3H]MSX-2
T2 construct: expressed in transfected cells; host or cells: CHO cells
Experimental: as §1, §2

human A2B AR = biological target: T3, human A2B AR (Homo sapiens, UniProt P29275); assay: Radioligand binding assay at human A2B AR vs. [^3H]PSB-603; conditions: for Ki: CHO cell membranes, n = 2 (n = 3 where marked a), read-out: Ki ± SEM, A2B vs. [^3H]PSB-603; for inhibition at 1 µM: at 1,000 nM, read-out: % inhibition of radioligand binding at indicated concentration, A2B vs. [^3H]PSB-603
T3 construct: expressed in transfected cells; host or cells: CHO cells
T3 sequence (P29275 1-332): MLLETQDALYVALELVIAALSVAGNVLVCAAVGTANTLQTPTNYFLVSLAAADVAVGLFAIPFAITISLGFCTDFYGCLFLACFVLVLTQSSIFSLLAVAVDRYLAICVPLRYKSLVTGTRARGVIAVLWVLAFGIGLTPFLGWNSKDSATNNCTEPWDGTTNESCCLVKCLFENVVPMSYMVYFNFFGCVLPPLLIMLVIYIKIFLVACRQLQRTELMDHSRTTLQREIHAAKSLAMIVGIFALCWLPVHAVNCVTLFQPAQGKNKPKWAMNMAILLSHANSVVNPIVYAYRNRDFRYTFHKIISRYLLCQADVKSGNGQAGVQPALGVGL
Experimental: as §1, §2

human A1 AR = biological target: T4, human A1 AR (Homo sapiens, UniProt P30542); assay: Radioligand binding assay at human A1 AR vs. [^3H]CCPA; conditions: human (h); CHO cell membranes; n = 3
T4 construct: expressed in transfected cells; host or cells: CHO cells
T4 sequence (P30542 1-326): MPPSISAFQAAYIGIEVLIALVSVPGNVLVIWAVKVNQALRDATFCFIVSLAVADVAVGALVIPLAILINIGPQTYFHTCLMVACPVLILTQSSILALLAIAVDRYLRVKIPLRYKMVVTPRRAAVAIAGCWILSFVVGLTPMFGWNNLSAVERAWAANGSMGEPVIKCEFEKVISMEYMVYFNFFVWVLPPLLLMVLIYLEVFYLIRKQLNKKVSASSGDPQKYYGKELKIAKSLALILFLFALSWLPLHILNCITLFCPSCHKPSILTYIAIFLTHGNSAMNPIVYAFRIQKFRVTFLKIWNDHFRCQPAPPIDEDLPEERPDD
Experimental: as §1, §2

rat A2A AR = biological target: T5, rat A2A AR (Rattus norvegicus, UniProt P30543); assay: Radioligand binding assay at rat A2A AR (rat brain striatum) vs. [^3H]MSX-2; conditions: rat (r); rat brain striatum; n = 3; read-out: Ki ± SEM, A2A vs. [^3H]MSX-2
T5 construct: A2A ARs of rat brain striatal membrane preparations; from tissue; host or cells: rat brain striatum membranes
Experimental: as §1, §2

recombinant human MAO-B = biological target: T6, recombinant human MAO-B (Homo sapiens, UniProt P27338); assay: Monoamine oxidase assay (Amplex Red), MAO-B; type: biochemical; conditions: for inhibition at 10 µM: at 10,000 nM (10 μM), read-out: % inhibition at indicated concentration, Human MAO-B; for IC50: n = 3, read-out: IC50 ± SEM, Human MAO-B
T6 construct: purchased Sigma-Aldrich M7441; host or cells: baculovirus-infected insect cells
T6 sequence (P27338 1-520): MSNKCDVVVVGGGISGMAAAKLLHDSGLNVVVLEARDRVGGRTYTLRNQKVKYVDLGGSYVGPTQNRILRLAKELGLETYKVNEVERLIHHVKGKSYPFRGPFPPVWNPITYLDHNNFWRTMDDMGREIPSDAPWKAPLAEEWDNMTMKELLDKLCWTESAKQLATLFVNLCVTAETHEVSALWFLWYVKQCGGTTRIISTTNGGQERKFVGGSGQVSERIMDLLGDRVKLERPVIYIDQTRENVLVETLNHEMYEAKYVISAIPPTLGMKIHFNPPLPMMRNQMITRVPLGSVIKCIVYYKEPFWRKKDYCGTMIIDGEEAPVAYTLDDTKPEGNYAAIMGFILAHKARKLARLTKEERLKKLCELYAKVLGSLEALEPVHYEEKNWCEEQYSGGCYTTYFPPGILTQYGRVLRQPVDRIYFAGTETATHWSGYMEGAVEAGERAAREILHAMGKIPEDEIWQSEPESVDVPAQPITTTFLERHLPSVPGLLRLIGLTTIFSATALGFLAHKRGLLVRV
Experimental: The determination of MAO-A and MAO-B inhibition was performed using commercially available recombinant human MAO-A and MAO-B enzymes expressed in baculovirus-infected insects sells (Sigma-Aldrich, M7316 and M7441) applying the commercially available Amplex® Red monoamine oxidase assay kit (Invitrogen A12214). The assays were performed as previously described. The determination of rat MAO-B inhibition was performed using mitochondrial-enriched fractions from male Sprague Dawley rat livers. […]

human A3 AR = biological target: T7, human A3 AR (Homo sapiens, UniProt P0DMS8); assay: Radioligand binding assay at human A3 AR vs. [^3H]PSB-11; conditions: for Ki: CHO cell membranes, n = 2 (n = 3 where marked a), read-out: Ki ± SEM, A3 vs. [^3H]PSB-11; for inhibition at 10 µM: at 10,000 nM, read-out: % inhibition of radioligand binding at indicated concentration, A3 vs. [^3H]PSB-11
T7 construct: expressed in transfected cells; host or cells: CHO cells
T7 sequence (P0DMS8 1-318): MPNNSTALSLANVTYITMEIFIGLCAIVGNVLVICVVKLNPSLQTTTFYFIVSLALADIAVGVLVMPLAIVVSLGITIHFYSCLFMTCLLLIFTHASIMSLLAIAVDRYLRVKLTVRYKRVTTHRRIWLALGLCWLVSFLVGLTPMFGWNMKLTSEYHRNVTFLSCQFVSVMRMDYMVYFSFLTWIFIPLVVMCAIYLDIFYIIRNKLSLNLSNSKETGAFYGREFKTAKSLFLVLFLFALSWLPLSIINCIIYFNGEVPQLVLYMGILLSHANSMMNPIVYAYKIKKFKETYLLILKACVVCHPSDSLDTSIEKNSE
Experimental: as §1, §2

T5 sequence (P30543 whole entry): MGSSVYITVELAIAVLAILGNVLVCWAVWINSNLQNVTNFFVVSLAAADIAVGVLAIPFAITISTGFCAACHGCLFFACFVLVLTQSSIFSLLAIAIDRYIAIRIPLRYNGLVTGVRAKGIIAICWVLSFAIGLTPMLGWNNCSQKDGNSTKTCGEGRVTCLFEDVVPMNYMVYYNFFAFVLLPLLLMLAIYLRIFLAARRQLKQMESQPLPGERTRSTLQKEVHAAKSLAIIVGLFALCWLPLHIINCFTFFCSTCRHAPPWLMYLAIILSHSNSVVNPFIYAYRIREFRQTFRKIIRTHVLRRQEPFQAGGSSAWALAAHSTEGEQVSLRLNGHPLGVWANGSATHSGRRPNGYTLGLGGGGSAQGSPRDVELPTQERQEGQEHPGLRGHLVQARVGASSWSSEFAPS
T2 sequence (P29274 whole entry): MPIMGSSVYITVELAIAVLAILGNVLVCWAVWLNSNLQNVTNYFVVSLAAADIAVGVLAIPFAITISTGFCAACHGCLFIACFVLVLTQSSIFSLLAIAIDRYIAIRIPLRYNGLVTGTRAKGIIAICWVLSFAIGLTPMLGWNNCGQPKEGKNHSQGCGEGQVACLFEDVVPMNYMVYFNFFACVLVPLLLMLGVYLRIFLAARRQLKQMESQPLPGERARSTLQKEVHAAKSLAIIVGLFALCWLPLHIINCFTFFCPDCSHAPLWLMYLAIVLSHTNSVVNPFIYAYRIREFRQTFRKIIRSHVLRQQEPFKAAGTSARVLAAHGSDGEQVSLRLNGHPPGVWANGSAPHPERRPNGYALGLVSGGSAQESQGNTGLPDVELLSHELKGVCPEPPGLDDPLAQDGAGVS

Row | SMILES | Ki (rat A1 AR) [nM] | Ki (human A2A AR) [nM] | Ki (human A2B AR) [nM] | inhibition at 1 µM (human A2B AR) [%] | Ki (human A1 AR) [nM] | Ki (rat A2A AR) [nM] | inhibition at 10 µM (recombinant human MAO-B) [%] | IC50 (recombinant human MAO-B) [nM] | Ki (human A3 AR) [nM] | inhibition at 10 µM (human A3 AR) [%]
1 | CCn1c(=O)c2c(nc3n2CCN(Cc2cc(F)cc(C(F)(F)F)c2)C3)n(C)c1=O [Compound 14p, 3-ethyl-8-(3-fluoro-5-(trifluoromethyl)benzyl)-1-methyl-6,7,8,9-tetrahydropyrazino[2,1-f]purine-2,4(1H,3H)-dione] | 111 ± 25 | 503 ± 121 | > 1000 | 5 | 330 ± 67 | 801 ± 99 | 23 | > 10000 | > 10000 | 39
2 | C#CCn1c(=O)c2c(nc3n2CCN(CCc2cccc(OC)c2)C3)n(CC)c1=O [Compound 20j, 1-ethyl-8-(3-methoxyphenethyl)-3-propargyl-6,7,8,9-tetrahydropyrazino[2,1-f]purine-2,4(1H,3H)-dione] | 669 ± 35 | 25500 | > 1000 | 11 | 1020 | 798 ± 134 | 30 | > 10000 | > 10000 | 13
3 | CCn1c(=O)c2c(nc3n2CCN(Cc2cccc(Br)c2)C3)n(CC)c1=O [Compound 15d, 8-(3-bromobenzyl)-1,3-diethyl-6,7,8,9-tetrahydropyrazino[2,1-f]purine-2,4(1H,3H)-dione] | 21.5 ± 8.3 | 1050 | 496 ± 135 |  | 13.6 ± 2.1 | 1040 | 49 | ≥ 10000 | 7220 | 

From article PMC6028563, “Probing Substituents in the 1- and 3-Position: Tetrahydropyrazino-Annelated Water-Soluble Xanthine Derivatives as Multi-Target Drugs With Potent Adenosine Receptor Antagonistic Activity” (Frontiers in Chemistry, 2018)
